Measurements from PMC3131558, “Plitidepsin Has a Safe Cardiac Profile: A Comprehensive Analysis” (Marine Drugs, 2011).

Key:
dog = settings: preclinical; cited from earlier work
Source text: (§1) Plitidepsin, a cyclic depsipeptide of marine origin, is an investigational drug currently in clinical development as a single agent as well as in combination with other anticancer agents for the treatment of different solid tumors and hematological malignancies. […] CAE ...

Purkinje fibers = settings: preclinical, in vitro; cited from earlier work
Source text: as §1

[1] = system: guinea pig Langendorff preparation; settings: exploratory study; cited from earlier work
Source text: as §1

HERG = settings: preclinical, in vitro; cited from earlier work
Source text: as §1

[2] = system: adult patients with advanced solid tumors or hematological malignancies; experiment: Paired ECGs (QTc, heart rate) before and after plitidepsin infusion; format: in vivo, human; settings: for QTc Pre-infusion / HR Post-Infusion / QTc Post-infusion / HR Pre-Infusion: mean (SD)
Procedure: Selected ECG variables (Bazett’s corrected QT interval (QTc) and heart rate (HR)) were analyzed in patients with paired ECG data (i.e., available before and after plitidepsin infusion, n = 136).
(§2) Pharmacokinetic (PK) data available from individual clinical trials (four phase I studies and nine phase II studies; see details in Table 1) and/or simulated data using population PK analyses were correlated with the occurrence of CAEs. In the individual studies, doses ranged from 0.13 to 8.00 mg/m^2, and were administered as 1 h or 24 h infusion weekly, 3 h or 24 h infusion bi-weekly, or 1 h infusion for 5 consecutive days every 3 weeks. To evaluate the potential relationship between blood plitidepsin concentrations and QTc and HR values, a total of 90 patients who had ECGs performed during treatment with plitidepsin and PK data during first infusion were analyzed. The plitidepsin concentration at the time when the ECG had been obtained was calculated using the whole blood plitidepsin concentration at the ECG times in which they were simulated taking the individual Bayesian PK parameters of the final population PK model and considering the real treatment history of each patient. In total, 411 patients and 5585 plitidepsin concentration measurements (including 2900 blood and 2685 plasma concentrations) were pooled in the population PK analysis. An open, 3-compartment disposition model with linear elimination and linear distribution from the central compartment to peripheral compartments was used to describe the PK of plitidepsin in plasma. Between and within subject variabilities were assumed to be log-normally distributed. PK exposure parameters (maximum concentration in plasma (Cmax) and area under the curve (AUC) from day 0 to day 28) and other dose-independent PK parameters (clearance, half-life, etc.) were used to evaluate the relationship between patient PK characteristics and the appearance of CAEs. For the statistical analysis of the relationship between the exposure parameters and the development or not of a CAE, a logistic regression model was used to analyze the incidence of the event.

[3] = system: adult patients with advanced solid tumors or hematological malignancies; experiment: Multivariate logistic regression of variables associated with CAEs; format: in vivo, human; settings: overall multivariate analysis
Source text: To avoid potential bias, candidate variables were explored by univariate analysis regardless of the relationship attributed to the CAE with plitidepsin by the investigators (related, unrelated or unknown). Univariate logistic regression was used to study the relationship between the occurrence of a CAE and categorical and continuous patient and disease characteristics, and other observed toxicities or laboratory abnormalities. Those variables found to be clinically relevant and/or statistically significant (or of borderline significance) in this analysis were further assessed as covariates in a multivariate analysis using logistic regression with stepwise variable selection and multiple correspondence analysis methods.

[4] = Population PK exposure (Cmax, AUC0-28day) by CAE category; format: in vivo, human; settings: whole blood, mean (SD)
Procedure: as §2

[5] = All (n = 136 pairs), ECG within 4 h after end of infusion
[6] = Myocardial injury (n = 4 pairs)
[7] = No cardiac event (n = 116 pairs)
[8] = Rhythm abnormalities (n = 18 pairs)

## plitidepsin
dog
  Cardiotoxic profile in in vivo study in the dog: did not show a cardiotoxic profile
Purkinje fibers
  Cardiotoxic profile in study using Purkinje fibers: did not show a cardiotoxic profile
[1]
  Cardiac effects of escalating doses in guinea pig Langendorff preparation: did not show a cardiotoxic profile
HERG
  Cardiotoxic profile in HERG assay: did not show a cardiotoxic profile
[2]; All (n = 136 pairs), Bazett's corrected
  QTc Pre-infusion: 426.77 (38.78) msec
[2]; [5]
  HR Post-Infusion: 82.46 (13.17) bpm
  QTc Post-infusion: 429.28 (40.25) msec
[2]; All (n = 136 pairs)
  HR Pre-Infusion: 79.07 (15.33) bpm
[2]; Cardiac event (n = 20 pairs)
  HR Post-Infusion: 80.10 (10.87) bpm
  HR Pre-Infusion: 74.05 (13.39) bpm
  QTc Post-infusion: 442.60 (32.09) msec
  QTc Pre-infusion: 437.75 (28.65) msec
[2]; [6]
  HR Post-Infusion: 77.75 (12.55) bpm
  HR Pre-Infusion: 68.75 (10.34) bpm
  QTc Post-infusion: 437.50 (15.20) msec
  QTc Pre-infusion: 429.00 (29.15) msec
[2]; [7]
  HR Post-Infusion: 82.86 (13.53) bpm
  HR Pre-Infusion: 79.92 (15.53) bpm
  QTc Post-infusion: 426.98 (41.18) msec
  QTc Pre-infusion: 424.88 (40.06) msec
[2]; [8]
  HR Post-Infusion: 80.44 (11.30) bpm
  HR Pre-Infusion: 75.44 (13.39) bpm
  QTc Post-infusion: 442.67 (33.79) msec
  QTc Pre-infusion: 439.44 (29.79) msec
[2]; all ECGs during treatment (263 ECGs), simulated concentrations
  Relationship between whole blood plitidepsin concentrations and QTc interval: No apparent relationship
[3]; p = 0.0017
  OR for CAE: Tumor type, Prostate or pancreatic cancer: 4.217
[3]; p = 0.0072
  OR for CAE: Cardiac risk and relevant concomitant medication at baseline, Presence: 3.034
[3]; p = 0.0095
  OR for CAE: Hypokalemia (worst per patient), Grade ≥ 2: 3.851
[3]; p = 0.0140
  OR for CAE: Myalgia (at baseline), Presence: 5.015
[3]; p = 0.0208
  OR for CAE: Hemoglobin (worst per patient), <10 g/dL: 2.195
[4]; Irregular supraventricular tachycardia (n = 12), simulated
  AUC0–28day: 3197 (3640) h·ng/mL
[4]; Miscellaneous Cardiac Adverse Event (n = 7), simulated
  AUC0–28day: 2645 (1672) h·ng/mL
[4]; No Cardiac adverse Event (n = 375), simulated from population PK model
  AUC0–28day: 3374 (4336) h·ng/mL
[4]; Other myocardial injury (n = 4), simulated
  AUC0–28day: 4791 (6136) h·ng/mL
[4]; Possible ischemic related (n = 7), simulated
  AUC0–28day: 3668 (1696) h·ng/mL
[4]; Regular supraventricular tachycardia (n = 6), simulated
  AUC0–28day: 5277 (3997) h·ng/mL
[4]; Rhythm Abnormalities (n = 25), simulated
  AUC0–28day: 3435 (3372) h·ng/mL
